From US12077503B2, “Substituted cyclic amides and their use as herbicides” (FMC CORPORATION, priority 2015, dated 2024) come the findings set out here.

One data set has as its system Kochia (Kochia scoparia). Put plainly: Test A preemergence. It counts as in vivo. To be noted: Bassia scoparia, pre-emergence, 240 h, 0 to 100 scale (0 no effect, 100 complete control), read-out: Plant response rating, Kochia; for pest or weed control at 500 g/ha: 500 g ai/ha, preemergence; for pest or weed control at 125 g/ha: Preemergence, 125 g ai/ha. The gist of the method:
(§1)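 Preemergence directed soil spray on seeded pots, or postemergence application to plants 2–10 cm, one- to two-leaf. Solvent mixture non-phytotoxic, with surfactant. Scored ~10 d later, visually, 0–100 vs untreated.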

For data set [1], the system named is barnyardgrass (Echinochloa crus-galli). In words: Test A preemergence. It counts as in vivo. To be noted: Echinochloa crus-galli, pre-emergence, 240 h, 0 to 100 scale (0 no effect, 100 complete control), read-out: Plant response rating, Barnyardgrass; for pest or weed control at 500 g/ha: 500 g ai/ha, preemergence; for pest or weed control at 125 g/ha: Preemergence, 125 g ai/ha. In a few lines: as §1

In data set [2] the test system is giant foxtail (Setaria faberii). Put plainly: Test A preemergence. It counts as in vivo. The following applies: Setaria faberi, pre-emergence, 240 h, 0 to 100 scale (0 no effect, 100 complete control), read-out: Plant response rating, Foxtail, Giant; for pest or weed control at 500 g/ha: 500 g ai/ha, preemergence; for pest or weed control at 125 g/ha: Preemergence, 125 g ai/ha. The gist of the method:
as §1

For data set [3], the system named is pigweed (Amaranthus retroflexus). In words: Test A preemergence. The following applies: Amaranthus retroflexus, pre-emergence, 240 h, 0 to 100 scale (0 no effect, 100 complete control), read-out: Plant response rating, Pigweed; for pest or weed control at 500 g/ha: 500 g ai/ha, preemergence; for pest or weed control at 125 g/ha: Preemergence, 125 g ai/ha. In kind it is in vivo.

For data set [4], the system named is ragweed (common ragweed, Ambrosia elatior). Put plainly: Test A preemergence. In kind it is in vivo. To be noted: Ambrosia artemisiifolia, pre-emergence, 240 h, 0 to 100 scale (0 no effect, 100 complete control), read-out: Plant response rating, Ragweed; for pest or weed control at 500 g/ha: 500 g ai/ha, preemergence; for pest or weed control at 125 g/ha: Preemergence, 125 g ai/ha. The gist of the method:
as §1

The test system of data set [5] is ryegrass, Italian (Italian ryegrass, Lolium multiflorum). In words: Test A preemergence. To be noted: Lolium multiflorum, pre-emergence, 240 h, 0 to 100 scale (0 no effect, 100 complete control), read-out: Plant response rating, Ryegrass, Italian; for pest or weed control at 500 g/ha: 500 g ai/ha, preemergence; for pest or weed control at 125 g/ha: Preemergence, 125 g ai/ha. It counts as in vivo. In a few lines:
as §1

Data set [6] concerns barnyardgrass (Echinochloa crus-galli). In words: Test G Pre-Emergence Protocol. In kind it is in vivo. To be noted: Echinochloa crus-galli, pre-emergence, 312 h, evaluated after 13 days; for pest or weed control at 15.625 g/ha: 15.625 g ai/ha, read-out: Barnyard grass damage rating (100=total damage to plant; 0=no damage to plant); for pest or weed control at 62.5 g/ha: 62.5 g ai/ha, 100=total damage to plant, 0=no damage to plant, read-out: plant damage rating, Barnyardgrass; for pest or weed control at 250 g/ha: 250 g ai/ha, read-out: Barnyardgrass damage rating (100=total damage to plant; 0=no damage to plant). The gist of the method:
(§2)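 Glasshouse pre-emergence test: soil-sown seeds, sprayed after 1 d at 15.625, 62.5 or 250 g/ha. Conditions 24/16° C day/night, 14 h light, 65% humidity, watering twice daily. Rating 13 d post-spray (100 = total damage).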

In another data set the test system is corn (Zea mays). In words: Test G Pre-Emergence Protocol. In kind it is in vivo. To be noted: Zea mays, pre-emergence, 312 h, evaluated after 13 days; for plant injury at 15.625 g/ha: 15.625 g ai/ha; for plant injury at 15.625 g/ha / plant injury at 250 g/ha: read-out: Corn damage rating (100=total damage to plant; 0=no damage to plant); for plant injury at 62.5 g/ha: 62.5 g ai/ha, 100=total damage to plant, 0=no damage to plant, read-out: plant damage rating, Corn; for plant injury at 250 g/ha: 250 g ai/ha. The gist of the method:
as §2

Data set [7] relates to giant foxtail (Setaria faberi). In words: Test G Pre-Emergence Protocol. It counts as in vivo. To be noted: Setaria faberi, pre-emergence, 312 h, evaluated after 13 days; for pest or weed control at 62.5 g/ha: 62.5 g ai/ha, 100=total damage to plant, 0=no damage to plant, read-out: plant damage rating, Foxtail, Giant; for pest or weed control at 250 g/ha: 250 g ai/ha. The gist of the method: as §2

For data set [8], the system named is ivy-leaved morning glory (Ipomoea hederacea). In words: Test G Pre-Emergence Protocol. In kind it is in vivo. The following applies: Ipomoea, pre-emergence, 312 h, evaluated after 13 days; for pest or weed control at 15.625 g/ha: 15.625 g ai/ha, read-out: Morning-glory, Ivy-leaved damage rating (100=total damage to plant; 0=no damage to plant); for pest or weed control at 62.5 g/ha: 62.5 g ai/ha, 100=total damage to plant, 0=no damage to plant, read-out: plant damage rating, Morningglory, Ivy-leaved; for pest or weed control at 250 g/ha: 250 g ai/ha, read-out: Morningglory, Ivy-leaved damage rating (100=total damage to plant; 0=no damage to plant). In a few lines:
as §2

The test system of data set [9] is redroot pigweed (Amaranthus retroflexus). Put plainly: Test G Pre-Emergence Protocol. In kind it is in vivo. To be noted: Amaranthus retroflexus, pre-emergence, 312 h, evaluated after 13 days; for pest or weed control at 15.625 g/ha: 15.625 g ai/ha; for pest or weed control at 15.625 g/ha / pest or weed control at 250 g/ha: read-out: Pigweed, Redroot damage rating (100=total damage to plant; 0=no damage to plant); for pest or weed control at 62.5 g/ha: 62.5 g ai/ha, 100=total damage to plant, 0=no damage to plant, read-out: plant damage rating, Pigweed, Redroot; for pest or weed control at 250 g/ha: 250 g ai/ha. In a few lines:
as §2

Data set [10] has as its system velvetleaf (Abutilon theophrasti). Put plainly: Test G Pre-Emergence Protocol. The following applies: Abutilon theophrasti, pre-emergence, 312 h, evaluated after 13 days; for pest or weed control at 15.625 g/ha: 15.625 g ai/ha; for pest or weed control at 15.625 g/ha / pest or weed control at 250 g/ha: read-out: Velvetleaf damage rating (100=total damage to plant; 0=no damage to plant); for pest or weed control at 62.5 g/ha: 62.5 g ai/ha, 100=total damage to plant, 0=no damage to plant, read-out: plant damage rating, Velvetleaf; for pest or weed control at 250 g/ha: 250 g ai/ha. It counts as in vivo. The gist of the method: as §2

[11] abbreviates: read-out: Foxtail, Giant damage rating (100=total damage to plant; 0=no damage to plant).

Broadly, the melting point is the temperature of the solid-liquid transition. In turn, `CN1C[C@H](c2ccc(C(F)(F)F)nc2)[C@@H](C(=O)Nc2cccc(F)c2F)C1=O` [Compound 1372] showed a melting point of 188.1 to 192.4 °C. For the same molecule, in the data set on Kochia (Kochia scoparia), the pest or weed control at 500 g/ha worked out at 90% and the pest or weed control at 125 g/ha came to 90%. Also, in [1], the pest or weed control at 500 g/ha is 100% and the pest or weed control at 125 g/ha came out at 90%. Moreover, in data set [2], the pest or weed control at 500 g/ha came out at 100% and the pest or weed control at 125 g/ha is 90%. In addition, in data set [3], the pest or weed control at 500 g/ha was 90% and the pest or weed control at 125 g/ha was determined as 90%. Besides, in [4], the pest or weed control at 500 g/ha amounted to 90% and the pest or weed control at 125 g/ha stood at 90%. Further, in [5], the pest or weed control at 500 g/ha is 60% and the pest or weed control at 125 g/ha is 60%.

As to `CN1CC[C@H](c2cccc(C(F)(F)F)c2)[C@@H](C(=O)Nc2cccc(F)c2F)C1=O` [Compound 1330], the melting point is 54 to 57 °C. In the data set on Kochia (Kochia scoparia), the pest or weed control at 500 g/ha worked out at 90% and the pest or weed control at 125 g/ha turned out to be 20%. Further, in data set [1], the pest or weed control at 500 g/ha is 90% and the pest or weed control at 125 g/ha stood at 90%. Also, in data set [2], the pest or weed control at 500 g/ha is 90% and the pest or weed control at 125 g/ha came out at 90%. In addition, in data set [3], the pest or weed control at 500 g/ha was found to be 0% and the pest or weed control at 125 g/ha worked out at 0%. Also, in data set [4], the pest or weed control at 500 g/ha is 50% and the pest or weed control at 125 g/ha stood at 0%. In addition, in data set [5], the pest or weed control at 500 g/ha came out at 50% and the pest or weed control at 125 g/ha was 50%.

As for `N#Cc1ccc(NC(=O)C2C(=O)NCC2c2ccccc2)cc1` (stereo not drawn) [Compound 1355], the melting point fell in the range of 186 to 188 °C. Further, in data set [1], the pest or weed control at 500 g/ha was found to be 0% and the pest or weed control at 125 g/ha was found to be 0%. In [2], the pest or weed control at 500 g/ha came to 0% and the pest or weed control at 125 g/ha amounted to 0%. In [3], the pest or weed control at 500 g/ha is 0% and the pest or weed control at 125 g/ha was 0%.

In turn, `O=C1NCC(c2ccccc2)C1C(=O)Nc1ccccc1` (stereo not drawn) [Compound 1358] came in with a melting point of 180 to 181 °C. In addition, in data set [1], the pest or weed control at 500 g/ha is 0% and the pest or weed control at 125 g/ha was 0%. Further, in data set [2], the pest or weed control at 500 g/ha worked out at 0% and the pest or weed control at 125 g/ha worked out at 0%. In addition, in data set [3], the pest or weed control at 500 g/ha was found to be 0% and the pest or weed control at 125 g/ha was found to be 0%.

Turning to `CN1C[C@@H](c2ccc(C(F)(F)F)cc2)[C@H](C(=O)Nc2cc[nH]n2)C1=O` (racemic) [Compound 1533], the pest or weed control at 15.625 g/ha in data set [6], in [8], in data set [9] and in data set [10] was 0% in each case. In addition, the pest or weed control at 62.5 g/ha in data set [6], in [7], in data set [8], in data set [9] and in data set [10] was 0% each time. Further, the pest or weed control at 250 g/ha in data set [6], in data set [7] (setting [11]), in [8], in data set [9] and in data set [10] was 0% throughout. Besides, the plant injury at 15.625 g/ha in the data set with corn (Zea mays) was found to be 0%. The plant injury at 62.5 g/ha in the data set on corn (Zea mays) amounted to 0%. Moreover, in the data set on corn (Zea mays), the plant injury at 250 g/ha was determined as 0%.

Consider `CN1C[C@@H](c2ccc(C(F)(F)F)cc2)[C@H](C(=O)Nc2ncc(C#N)s2)C1=O` (racemic) [Compound 1528], for which the pest or weed control at 15.625 g/ha in data set [6] is 0%; in data set [7] (15.625 g ai/ha, read-out: Foxtail, Giant damage rating (100=total damage to plant; 0=no damage to plant)) it was 0%; in data set [8] it was 0%; in data set [9], 0%; in data set [10], 0%. Besides, the pest or weed control at 62.5 g/ha in data set [6], in data set [7], in [8], in data set [9] and in data set [10] was 0% each time. For the same molecule, the pest or weed control at 250 g/ha in data set [6], in [7] (setting [11]), in [8], in data set [9] and in data set [10] was 0% in each case. In the data set with corn (Zea mays), the plant injury at 15.625 g/ha is 0%. Moreover, the plant injury at 62.5 g/ha with corn (Zea mays) was 0%. For the same molecule, the plant injury at 250 g/ha with corn (Zea mays) worked out at 0%.
